Laboratory results as given in US20180296537A1, “METHODS AND COMPOSITIONS FOR DIAGNOSING, TREATING, AND MONITORING TREATMENT OF SHANK3 DEFICIENCY ASSOCIATED DISORDERS” (Novartis AG, priority 2015, published 2018).

Tested on: PMDS iPS-derived neurons
Assay: sEPSC recordings from iPS-derived PMDS neurons
Assay type: cell-based, human
Source text: Primary human dermal fibroblasts from neonatal (Invitrogen, Carlsbad, Calif.) and adults (University of Milano, Dr. Sala) were taken for reprogramming using the CytoTune-iPS reprogramming kit (Life Technologies, Carlsbad, Calif.) according to the standard protocol. Colonies with hallmark of pluripotent morphology were readily visible between days 17 and 20 after transduction. These were picked and subcloned multiple times on plates coated with Matrigel (BD Biosciences, San Jose, Calif.) in mTeSR medium until Sendai virus RNA could no longer be detected and the morphology looked stable. […] Karyotype analyses was performed by full-genome SNP analyses by Life&Brain Gmbh (Bonn). […] Neuronal precursors were differentiated from iPS cells by using a modified dual SMAD inhibition as described earlier (Chambers et al., 2009; Pecho-Vrieseling et al., 2014). Briefly, […] undifferentiated hiPSC were seeded in an ULA 96-well in 0.1 ml neural induction medium (20% knockout-serum replacement (Invitrogen), 0.1 mM MEM non-essential amino acids (Invitrogen), 0.1 mM 2-mercaptoethanol (Invitrogen), 75% […] (Invitrogen Gibco); Pen/Strep, 10 ng ml bhFGF (1:1,000, Invitrogen), 10 μM SB 431542 (1:1,000) (Tocris, Bristol, UK) and 1 μM LDN 193189 (1:10,000) (Stemgent) with 10 μM Rock inhibitor to prevent apoptosis (Calbiochem, Darmstadt, Germany). Two days later 0.1 ml of fresh induction media was added to the old one. The next day 30 embryoid bodies (EB) were transferred to a 35 mm matrigel dish with induction media. At day 10 EB's were cleaned to have only neuronal rosettes left. […]
Whole cell patch-clamp recordings were excluded if the access resistance exceeded 13 MΩ and changed more than 20% during the recordings. Data were recorded with a MultiClamp 700B (Molecular Devices) amplifier, filtered at 0.2 kHz, and digitised at 10 kHz. Data were acquired and analysed with Clampex 10.0, Clampfit 10.0 (Molecular Devices) and the Mini Analysis Program (Synaptosoft, Decatur, Ga.). […]

[1] = PMDS neurons, eight weeks in vitro, overnight treatment

Row | SMILES | frequency of spontaneous EPSCs (sEPSCs) [1] | frequency of spontaneous EPSCs (sEPSCs) (neurons from second PMDS patient (PMDS-2))
1 | CCOC(=O)C1=C(N)Oc2ccc(Cl)cc2C1C(C#N)C(=O)OCC (stereo not drawn) [SC79] | completely rescued this impairment | restorative effect of SC79 was also observed
2 | CCN1/C(=C/C(C)=O)Sc2ccc(OC)cc21 [TG003, (Z)-1-(3-ethyl-5-methoxy-2,3-dihydrobenzothiazol-2-ylidene)propan-2-one] | completely rescued this impairment | 
